Laboratory results taken from the NIST ThermoML archive (doi:10.1016/j.tca.2009.10.010).
Numbers after ± are expanded uncertainties.

Assays:
[1] = Crystal; visual observation
[2] = Molar enthalpy of transition or fusion; details: Crystal; DSC

SMILES	Normal melting temperature [1] [°C]	Molar enthalpy of transition or fusion [2] [kcal/mol]
Oc1cccc(O)c1 [1,3-benzenediol]	110.50 ± 1.1	5.31 ± 0.158
Ic1ccc(I)cc1 [1,4-diiodobenzene]	130.00 ± 1.1	5.77 ± 0.17
